Experimental data as given in the supplement of paper PMC10307832.

Assays:
Test in all cases: relative viability (nuclei count vs DMSO), 5 days (fraction); higher = more cells survive
[1] = system: NCI-H441
In short: (§1)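 A single step with final 0.05% Triton X-100, 1% formaldehyde and 1 ug/ml Hoechst fixed the cells and stained nuclei 5 days after treatment. Lung cancer cell lines in 1536-well plates had been treated by pin tool the day after seeding with one drug alone or a fixed anchor-drug dose plus five library-drug doses (not always all listed) in √10 steps, and nuclei were counted on 4× images. Relative viability is the ratio of nuclei in treated wells to nuclei in vehicle wells, taken as the median of duplicate plates.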

[2] = system: NCI-H2087
In short: as §1

[3] = system: BEN
In short: as §1

[4] = system: NCI-H727
In short: as §1

[5] = system: NCI-H596
In short: as §1

[6] = system: NCI-H2126
In short: as §1

[7] = system: NCI-H522
In short: as §1

[8] = system: NCI-H3122
In short: as §1

[9] = system: EMC-BAC-2
In short: as §1

[10] = system: NCI-H647
In short: as §1

[11] = system: NCI-H2347
In short: as §1

[12] = system: NCI-H1993
In short: as §1

[13] = system: HARA
In short: as §1

[14] = system: HCC-44
In short: as §1

[15] = system: 201T
In short: as §1

[16] = system: NCI-H23
In short: as §1

[17] = system: NCI-H650
In short: as §1

[18] = system: NCI-H2023
In short: as §1

[19] = system: NCI-H838
In short: as §1

[20] = system: LOU-NH91
In short: as §1

[21] = system: LCLC-103H
In short: as §1

[22] = system: NCI-H1395
In short: as §1

COc1cc2nccc(Oc3ccc(NC(=O)Nc4cc(C)on4)c(Cl)c3)c2cc1OC [Tivozanib] + N=C(N)NC(=N)NCCc1ccccc1 [Phenformin] (partner 250 µM)
relative viability ([1]; first compound 0.005 µM): 0.797 | relative viability ([1]; first compound 0.01581 µM): 0.782 | relative viability ([1]; first compound 0.05 µM): 0.823 | relative viability ([1]; first compound 0.1581 µM): 0.881 | relative viability ([1]; first compound 0.5 µM): 0.735 | relative viability ([2]; first compound 0.005 µM): 0.416 | relative viability ([2]; first compound 0.01581 µM): 0.444 | relative viability ([2]; first compound 0.05 µM): 0.496 | relative viability ([2]; first compound 0.1581 µM): 0.407 | relative viability ([2]; first compound 0.5 µM): 0.415 | relative viability ([3]; first compound 0.005 µM): 0.25 | relative viability ([3]; first compound 0.01581 µM): 0.279 | relative viability ([3]; first compound 0.05 µM): 0.224 | relative viability ([3]; first compound 0.1581 µM): 0.314 | relative viability ([3]; first compound 0.5 µM): 0.234 | relative viability ([4]; first compound 0.005 µM): 0.664 | relative viability ([4]; first compound 0.01581 µM): 0.489 | relative viability ([4]; first compound 0.05 µM): 0.439 | relative viability ([4]; first compound 0.1581 µM): 0.403 | relative viability ([4]; first compound 0.5 µM): 0.558 | relative viability ([5]; first compound 0.005 µM): 0.744 | relative viability ([5]; first compound 0.01581 µM): 0.699 | relative viability ([5]; first compound 0.05 µM): 0.777 | relative viability ([5]; first compound 0.5 µM): 0.798 | relative viability ([6]; first compound 0.005 µM): 0.486 | relative viability ([6]; first compound 0.01581 µM): 0.546 | relative viability ([6]; first compound 0.05 µM): 0.553 | relative viability ([6]; first compound 0.1581 µM): 0.516 | relative viability ([6]; first compound 0.5 µM): 0.528 | relative viability ([7]; first compound 0.005 µM): 0.595 | relative viability ([7]; first compound 0.01581 µM): 0.73 | relative viability ([7]; first compound 0.05 µM): 0.593 | relative viability ([7]; first compound 0.1581 µM): 0.619 | relative viability ([7]; first compound 0.5 µM): 0.705 | relative viability ([8]; first compound 0.005 µM): 0.376 | relative viability ([8]; first compound 0.01581 µM): 0.419 | relative viability ([8]; first compound 0.05 µM): 0.383 | relative viability ([8]; first compound 0.1581 µM): 0.361 | relative viability ([8]; first compound 0.5 µM): 0.344 | relative viability ([9]; first compound 0.005 µM): 0.48 | relative viability ([9]; first compound 0.01581 µM): 0.519 | relative viability ([9]; first compound 0.05 µM): 0.51 | relative viability ([9]; first compound 0.1581 µM): 0.428 | relative viability ([9]; first compound 0.5 µM): 0.441 | relative viability ([10]; first compound 0.005 µM): 0.538 | relative viability ([10]; first compound 0.01581 µM): 0.457 | relative viability ([10]; first compound 0.05 µM): 0.473 | relative viability ([10]; first compound 0.1581 µM): 0.469 | relative viability ([10]; first compound 0.5 µM): 0.497 | relative viability ([11]; first compound 0.01581 µM): 0.484 | relative viability ([11]; first compound 0.05 µM): 0.512 | relative viability ([11]; first compound 0.5 µM): 0.438 | relative viability ([12]; first compound 0.005 µM): 0.503 | relative viability ([12]; first compound 0.01581 µM): 0.507 | relative viability ([12]; first compound 0.05 µM): 0.51 | relative viability ([12]; first compound 0.1581 µM): 0.558 | relative viability ([12]; first compound 0.5 µM): 0.52 | relative viability ([13]; first compound 0.005 µM): 0.452 | relative viability ([13]; first compound 0.01581 µM): 0.41 | relative viability ([13]; first compound 0.05 µM): 0.424 | relative viability ([13]; first compound 0.1581 µM): 0.364 | relative viability ([13]; first compound 0.5 µM): 0.489 | relative viability ([14]; first compound 0.005 µM): 0.152 | relative viability ([14]; first compound 0.01581 µM): 0.234 | relative viability ([14]; first compound 0.05 µM): 0.19 | relative viability ([14]; first compound 0.1581 µM): 0.18 | relative viability ([14]; first compound 0.5 µM): 0.131 | relative viability ([15]; first compound 0.005 µM): 0.447 | relative viability ([15]; first compound 0.01581 µM): 0.405 | relative viability ([15]; first compound 0.05 µM): 0.423 | relative viability ([15]; first compound 0.1581 µM): 0.445 | relative viability ([15]; first compound 0.5 µM): 0.469 | relative viability ([16]; first compound 0.005 µM): 0.727 | relative viability ([16]; first compound 0.01581 µM): 0.824 | relative viability ([16]; first compound 0.05 µM): 0.783 | relative viability ([16]; first compound 0.1581 µM): 0.752 | relative viability ([16]; first compound 0.5 µM): 0.809 | relative viability ([17]; first compound 0.005 µM): 0.395 | relative viability ([17]; first compound 0.01581 µM): 0.457 | relative viability ([17]; first compound 0.05 µM): 0.472 | relative viability ([17]; first compound 0.1581 µM): 0.39 | relative viability ([17]; first compound 0.5 µM): 0.333 | relative viability ([18]; first compound 0.005 µM): 0.408 | relative viability ([18]; first compound 0.01581 µM): 0.421 | relative viability ([18]; first compound 0.05 µM): 0.426 | relative viability ([18]; first compound 0.1581 µM): 0.43 | relative viability ([18]; first compound 0.5 µM): 0.377 | relative viability ([19]; first compound 0.005 µM): 0.538 | relative viability ([19]; first compound 0.01581 µM): 0.551 | relative viability ([19]; first compound 0.05 µM): 0.538 | relative viability ([19]; first compound 0.5 µM): 0.564 | relative viability ([20]; first compound 0.005 µM): 0.65 | relative viability ([20]; first compound 0.01581 µM): 0.667 | relative viability ([20]; first compound 0.05 µM): 0.748 | relative viability ([20]; first compound 0.1581 µM): 0.654 | relative viability ([20]; first compound 0.5 µM): 0.676 | relative viability ([21]; first compound 0.005 µM): 0.325 | relative viability ([21]; first compound 0.01581 µM): 0.326 | relative viability ([21]; first compound 0.05 µM): 0.35 | relative viability ([21]; first compound 0.1581 µM): 0.306 | relative viability ([21]; first compound 0.5 µM): 0.348 | relative viability ([22]; first compound 0.005 µM): 0.357 | relative viability ([22]; first compound 0.01581 µM): 0.475 | relative viability ([22]; first compound 0.05 µM): 0.444 | relative viability ([22]; first compound 0.1581 µM): 0.426 | relative viability ([22]; first compound 0.5 µM): 0.383
